Laboratory results from ChEMBL document CHEMBL1201862, “PubChem BioAssay data set” (2004).
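Assay format: 96-well plates, 48-hour exposure. GI50: concentration for 50% inhibition of growth.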 Active and inactive are the calls of the source. Rule as the data show it: active = GI50 up to about 1.1 µM and inactive = higher.

Key:
Assay in all cases: growth of human tumour cells (NCI), 48 h
[1] = test system: OVCAR-5
[2] = test system: LOX IMVI
[3] = test system: SF-268
[4] = test system: SR
[5] = test system: OVCAR-8
[6] = test system: IGROV-1
[7] = test system: NCI-H226
[8] = test system: HCT-116
[9] = test system: A549
[10] = test system: NCI-H23
[11] = test system: NCI/ADR-RES
[12] = test system: CCRF-CEM
[13] = test system: Hs-578T
[14] = test system: KM12
[15] = test system: M14
[16] = test system: OVCAR-4
[17] = test system: SN12C
[18] = test system: A498
[19] = test system: NCI-H522

| SMILES | GI50 [1] | GI50 [2] | GI50 [3] | GI50 [4] | GI50 [5] | GI50 [6] | GI50 [7] | GI50 [8] | GI50 [9] | GI50 [10] | GI50 [11] | GI50 [12] | GI50 [13] | GI50 [14] | GI50 [15] | GI50 [16] | GI50 [17] | GI50 [18] | GI50 [19] |
| --- | --- | --- | --- | --- | --- | --- | --- | --- | --- | --- | --- | --- | --- | --- | --- | --- | --- | --- | --- |
| O=C(Nc1ccc(Cl)cc1)NS(=O)(=O)c1coc2ccccc2c1=O | > 10 µM (inactive) | > 10 µM (inactive) | > 10 µM (inactive) | > 10 µM (inactive) | > 10 µM (inactive) | > 10 µM (inactive) | > 10 µM (inactive) | > 10 µM (inactive) | > 10 µM (inactive) | > 10 µM (inactive) | > 10 µM (inactive) | > 10 µM (inactive) | > 10 µM (inactive) | > 10 µM (inactive) | > 10 µM (inactive) | > 10 µM (inactive) | > 10 µM (inactive) | > 10 µM (inactive) | > 10 µM (inactive) |
| Oc1cc(F)cc2cccnc12 | 3.29 µM (inactive) | 0.362 µM (active) | 0.218 µM (active) | 0.182 µM (active) | 0.324 µM (active) | 0.889 µM (active) | 3.54 µM (inactive) | 1.89 µM (inactive) | 1.02 µM (active) | 1.09 µM (active) | 0.281 µM (active) | 0.0778 µM (active) | 3.68 µM (inactive) | 1.3 µM (inactive) | 1.02 µM (active) | 0.435 µM (active) | 1.04 µM (active) | 6.58 µM (inactive) | 0.183 µM (active) |
| O=P1(O)c2ccccc2CSCc2ccccc21 | > 100 µM (inactive) | > 100 µM (inactive) | > 100 µM (inactive) | > 100 µM (inactive) | > 100 µM (inactive) | > 100 µM (inactive) | > 100 µM (inactive) | > 100 µM (inactive) | > 100 µM (inactive) | > 100 µM (inactive) | > 100 µM (inactive) | > 100 µM (inactive) | > 100 µM (inactive) | > 100 µM (inactive) | > 100 µM (inactive) | > 100 µM (inactive) | > 100 µM (inactive) | > 100 µM (inactive) | > 100 µM (inactive) |
| O=S(=O)(O)c1ccc(/N=N/c2ccccc2)cc1 | > 100 µM (inactive) | > 100 µM (inactive) | > 100 µM (inactive) | > 100 µM (inactive) | > 100 µM (inactive) | > 100 µM (inactive) | > 100 µM (inactive) | > 100 µM (inactive) | > 100 µM (inactive) | > 100 µM (inactive) | > 100 µM (inactive) | > 100 µM (inactive) | > 100 µM (inactive) | > 100 µM (inactive) | > 100 µM (inactive) | > 100 µM (inactive) | > 100 µM (inactive) | > 100 µM (inactive) | > 100 µM (inactive) |
| C=C1C(=O)O[C@H]2[C@H]3O[C@@H](C[C@@H]12)[C@](C)(O)CC[C@@H]1O[C@@]1(C)CCC[C@H]3C | 36.2 µM (inactive) | 16 µM (inactive) | 15.6 µM (inactive) | 16.5 µM (inactive) | 15.7 µM (inactive) | 14.7 µM (inactive) | 23.3 µM (inactive) | 14.2 µM (inactive) | 25.5 µM (inactive) | 16.4 µM (inactive) | 26.9 µM (inactive) | 11.4 µM (inactive) | 30.3 µM (inactive) | 20 µM (inactive) | 12 µM (inactive) | 16.5 µM (inactive) | 20.3 µM (inactive) | 23.6 µM (inactive) | 18.1 µM (inactive) |
| NC(=O)[C@H](Cc1ccc(O)cc1)NC1=C(Cl)C(=O)c2c(O)ccc(O)c2C1=O | 8.89 µM (inactive) | 1.61 µM (inactive) | 3.7 µM (inactive) | 1.34 µM (inactive) | 2.54 µM (inactive) | 2.07 µM (inactive) | > 10 µM (inactive) | 1.57 µM (inactive) | 7.73 µM (inactive) | 3.26 µM (inactive) | 2.8 µM (inactive) | 0.241 µM (active) | 3.71 µM (inactive) | 2.67 µM (inactive) | 3.14 µM (inactive) | 1.83 µM (inactive) | 3.55 µM (inactive) | 4.4 µM (inactive) | 1.63 µM (inactive) |
| O=[N+]([O-])/C(C(Cl)=C(Cl)Cl)=C1\NCCO1 | > 100 µM (inactive) | > 100 µM (inactive) | > 100 µM (inactive) | > 100 µM (inactive) | > 100 µM (inactive) | > 100 µM (inactive) | 39.3 µM (inactive) | 87.5 µM (inactive) | > 100 µM (inactive) | > 100 µM (inactive) | > 100 µM (inactive) | 22.9 µM (inactive) | 47.5 µM (inactive) | > 100 µM (inactive) | > 100 µM (inactive) | 35.1 µM (inactive) | > 100 µM (inactive) | > 100 µM (inactive) | > 100 µM (inactive) |
| COC(=O)C(Cc1c(C2Nc3ccccc3C2CC(NC(=O)CNC(C)=O)C(=O)OC)[nH]c2ccccc12)NC(=O)CNC(C)=O (stereo not given) | > 100 µM (inactive) | > 100 µM (inactive) | > 100 µM (inactive) | 16.3 µM (inactive) | > 100 µM (inactive) | > 100 µM (inactive) | > 100 µM (inactive) | > 100 µM (inactive) | > 100 µM (inactive) | > 100 µM (inactive) | > 100 µM (inactive) | > 100 µM (inactive) | > 72.6 µM (inactive) | > 100 µM (inactive) | > 100 µM (inactive) | > 100 µM (inactive) | > 100 µM (inactive) | > 100 µM (inactive) | > 100 µM (inactive) |
| Cn1c2ccccc2c2nc3ccccc3c(Cl)c21 | 49 µM (inactive) | > 100 µM (inactive) | > 100 µM (inactive) | > 100 µM (inactive) | > 100 µM (inactive) | > 100 µM (inactive) | > 100 µM (inactive) | > 100 µM (inactive) | > 100 µM (inactive) | 36.2 µM (inactive) | > 100 µM (inactive) | > 100 µM (inactive) | > 100 µM (inactive) | > 100 µM (inactive) | > 100 µM (inactive) | > 100 µM (inactive) | > 100 µM (inactive) | > 100 µM (inactive) | > 100 µM (inactive) |
| O=C1C(O)=C(C(C2=C(O)C(=O)c3ccccc3C2=O)c2ccc(Cl)cc2)C(=O)c2ccccc21 | 7.93 µM (inactive) | 2.64 µM (inactive) | 10.4 µM (inactive) | 3.18 µM (inactive) | 8.75 µM (inactive) | 8.2 µM (inactive) | 28.9 µM (inactive) | 6.34 µM (inactive) | 19.3 µM (inactive) | 4.85 µM (inactive) | 11.6 µM (inactive) | 6.4 µM (inactive) | 14.7 µM (inactive) | 8.97 µM (inactive) | 9.59 µM (inactive) | 6.24 µM (inactive) | 1.71 µM (inactive) | 18.4 µM (inactive) | 8.95 µM (inactive) |
| O=C(/C=C/c1cccc(Br)c1)c1ccc(Cl)cc1 | 15.6 µM (inactive) | 12.6 µM (inactive) | 17.5 µM (inactive) | 2.42 µM (inactive) | 17 µM (inactive) | 17.1 µM (inactive) | 18.8 µM (inactive) | 5.35 µM (inactive) | 16.8 µM (inactive) | 17 µM (inactive) | 21.7 µM (inactive) | 4.5 µM (inactive) | 22.7 µM (inactive) | 11.8 µM (inactive) | 14.6 µM (inactive) | 4.36 µM (inactive) | 17.2 µM (inactive) | 13.3 µM (inactive) | 13.6 µM (inactive) |
| C=C(Br)COc1ccc2c(C)cc(=O)oc2c1 | > 100 µM (inactive) | > 100 µM (inactive) | 69 µM (inactive) | 44.2 µM (inactive) | 47.9 µM (inactive) | 49.3 µM (inactive) | > 100 µM (inactive) | 59.3 µM (inactive) | 61.5 µM (inactive) | 90.4 µM (inactive) | 47.4 µM (inactive) | > 100 µM (inactive) | 90.6 µM (inactive) | 0.319 µM (active) | > 100 µM (inactive) | 50.7 µM (inactive) | > 100 µM (inactive) | 64.7 µM (inactive) | 42.6 µM (inactive) |
| O=C(O)CCC1(C(=O)O)CCC(=O)c2ccccc21 (stereo not given) | > 100 µM (inactive) | > 100 µM (inactive) | > 100 µM (inactive) | > 100 µM (inactive) | > 100 µM (inactive) | > 100 µM (inactive) | > 100 µM (inactive) | > 100 µM (inactive) | > 100 µM (inactive) | > 100 µM (inactive) | > 100 µM (inactive) | > 100 µM (inactive) | > 100 µM (inactive) | > 100 µM (inactive) | > 100 µM (inactive) | > 100 µM (inactive) | > 100 µM (inactive) | > 100 µM (inactive) | > 100 µM (inactive) |
| CCCCCNC1=CC(=O)c2ccccc2C1=O | > 100 µM (inactive) | 22.6 µM (inactive) | 25.1 µM (inactive) | 46.6 µM (inactive) | 23 µM (inactive) | 33.2 µM (inactive) | 31.6 µM (inactive) | 22.9 µM (inactive) | 42.8 µM (inactive) | 24.3 µM (inactive) | 45.3 µM (inactive) | > 100 µM (inactive) | 27.8 µM (inactive) | > 100 µM (inactive) | > 62.4 µM (inactive) | 59.7 µM (inactive) | 49.9 µM (inactive) | 32.1 µM (inactive) | 19.7 µM (inactive) |
| CSc1ccc2c(c1)C(N1CCN(C)CC1)Cc1ccccc1S2 (stereo not given) | 2.67 µM (inactive) | 2.01 µM (inactive) | 3.43 µM (inactive) | 2.3 µM (inactive) | 6.84 µM (inactive) | 2.17 µM (inactive) | 7.8 µM (inactive) | 3.84 µM (inactive) | 7.18 µM (inactive) | 13.9 µM (inactive) | 5.56 µM (inactive) | 0.219 µM (active) | 4.4 µM (inactive) | 2.62 µM (inactive) | 1.95 µM (inactive) | 2.3 µM (inactive) | 6.28 µM (inactive) | 9.79 µM (inactive) | 2.99 µM (inactive) |
